In patent publication US20120132797A1, “MEANS AND METHODS FOR DIAGNOSING THYROID DISORDERS” (BASF SE, priority 2009, published 2012):
Values joined by “and” are separate entries in the source; they are usually repeats but may differ in a detail not shown here. Equal values may be shown once.

Tested on: Wistar (Crl:WI(Han)) rats
Assay: Mass spectrometry-based plasma metabolite profiling of rats treated with known inducers of thyroid function impairment
Type: in vivo, rat
Conditions: ratio of group medians vs controls
Excerpt: At the beginning of the study the animals were 10-11 weeks old. Each dose group in the studies consisted of five rats per sex, and was compared with controls (10 rats per sex). […] The dose levels were chosen to show the typical overt (high dose) and slight (low dose) toxicological symptoms of the substances as described in the literature or in BASF internal study reports.
Blood samples were withdrawn from the retro-orbital sinus in all rats under isoflurane anesthesia on study days 7, 14 and 28 after a fasting period of 16-20 hours.
For mass spectrometry-based metabolite profiling analysis, plasma samples were extracted by a proprietary method which delivers a polar and a non-polar fraction. For GC-MS analysis, the non-polar fraction was treated with methanol under acidic conditions to yield the fatty acid methyl esters. Both fractions were further derivatised with Omethyl-hydroxyamine hydrochloride and pyridine to convert oxo groups to Omethyloximes and subsequently with a silylating agent before analysis.
In LC-MS/MS analysis, both fractions were reconstituted in appropriate solvent mixtures. HPLC was performed by gradient elution on reversed phase separation columns. For mass spectrometric detection metanomics proprietary technology was applied, which allows target and high sensitivity MRM (Multiple Reaction Monitoring) profiling in parallel to a full screen analysis. […] Moreover, several hundred additional analytes giving a fingerprint of the sample were included in the methods.
Following comprehensive analytical validation steps, the data for each analyte were normalized against data from pool samples. These samples were run in parallel through the whole process to account for process variability.
The sex- and day-stratified heteroscedastic t-test (“Welch test”) was applied to compare treated groups with respective controls. p-Values and ratios of corresponding group medians were collected as metabolic profiles and fed into a database.

[1] = female rats, fh7 (study day 7), Table 1
[2] = female rats, fh14 (study day 14), Table 1
[3] = female rats, fh28 (study day 28), Table 1
[4] = male rats, mh7 (study day 7), Table 2
[5] = male rats, mh14 (study day 14), Table 2
[6] = male rats, mh28 (study day 28), Table 2

`S=C1NCCN1` [Ethylenethiourea] was tested. Which 5-O-Methylsphingosine [1] did it give?
The 5-O-Methylsphingosine was 1.29 and 1.20.

What about the Asparagine [1] of the same compound?
The Asparagine was 1.06 and 1.35.

What about the “Behenic acid (C22:0)” value [1] of the same compound?
The value was 1.48 and 1.27.

What about the Citrate [1] of the same compound?
Its Citrate is 0.89 and 0.78.

And the “Docosahexaenoic acid (C22:cis[4,7,10,13,16]6)” value (“Docosahexaenoic acid” for short) [1]?
The value was 1.12 and 1.29.

What about the Glycine [1] of the same compound?
Its Glycine is 1.21 and 1.09.

What about the Ketoleucine [1] of the same compound?
The Ketoleucine was 0.93 and 0.84.

What about the “Lysophosphatidylcholine (C18:2)” value [1] of the same compound?
The value was 1.08.

What about the “Phosphatidylcholine (C16:1, C18:2)” value [1] of the same compound?
Its value is 1.43 and 1.26.

What about the “Phosphatidylcholine (C18:2, C20:4)” value [1] of the same compound?
Its value is 1.09 and 1.02.

And the Pyruvate [1]?
Its Pyruvate is 1.29 and 0.74.

And the “Tricosanoic acid (C23:0)” value [1]?
Its value is 1.38 and 1.44.

And the erythro-Sphingosine [1]?
The erythro-Sphingosine was 1.46 and 1.39.

And the threo-Sphingosine [1]?
Its threo-Sphingosine is 1.35 and 1.58.

And the “Sphingomyelin (d18:1, C16:0)” value (female rats, fh7 (study day 7), Table 1, first listing)?
Its value is 1.71 and 1.62.

What about the “Sphingomyelin (d18:1, C16:0)” value (female rats, fh7 (study day 7), Table 1, second listing) of the same compound?
Its value is 1.29 and 1.46.

And the 5-O-Methylsphingosine [2]?
Its 5-O-Methylsphingosine is 1.56 and 1.59.

What about the Asparagine [2] of the same compound?
Its Asparagine is 1.31 and 1.27.

What about the “Behenic acid (C22:0)” value [2] of the same compound?
Its value is 1.29 and 1.69.

And the Citrate [2]?
The Citrate was 0.85 and 0.86.

And the “Docosahexaenoic acid” value [2]?
The value was 1.45 and 1.24.

What about the Glycine [2] of the same compound?
Its Glycine is 1.24 and 1.18.

What about the Ketoleucine [2] of the same compound?
The Ketoleucine was 0.84 and 0.82.

What about the “Lysophosphatidylcholine (C18:2)” value [2] of the same compound?
Its value is 1.19 and 1.17.

And the “Phosphatidylcholine (C16:1, C18:2)” value [2]?
The value was 1.43 and 1.54.

And the “Phosphatidylcholine (C18:2, C20:4)” value [2]?
The value was 1.15 and 1.09.

What about the Pyruvate [2] of the same compound?
The Pyruvate was 0.79 and 1.14.

What about the “Tricosanoic acid (C23:0)” value [2] of the same compound?
The value was 1.52 and 1.30.

And the erythro-Sphingosine [2]?
The erythro-Sphingosine was 1.71 and 1.98.

And the threo-Sphingosine [2]?
Its threo-Sphingosine is 1.47 and 1.61.

And the “Sphingomyelin (d18:1, C16:0)” value (female rats, fh14 (study day 14), Table 1, first listing)?
The value was 1.43 and 1.55.

What about the “Sphingomyelin (d18:1, C16:0)” value (female rats, fh14 (study day 14), Table 1, second listing) of the same compound?
The value was 1.06 and 1.34.

And the 5-O-Methylsphingosine [3]?
Its 5-O-Methylsphingosine is 1.63 and 1.59.

What about the Asparagine [3] of the same compound?
Its Asparagine is 1.26 and 0.84.

And the “Behenic acid (C22:0)” value [3]?
The value was 1.69 and 1.27.

What about the Citrate [3] of the same compound?
The Citrate was 0.70 and 0.91.

And the “Docosahexaenoic acid” value [3]?
Its value is 1.22 and 1.11.

And the Glycine [3]?
The Glycine was 1.32 and 1.01.

What about the Ketoleucine [3] of the same compound?
Its Ketoleucine is 0.88 and 0.74.

What about the “Lysophosphatidylcholine (C18:2)” value [3] of the same compound?
The value was 1.10 and 1.23.

What about the “Phosphatidylcholine (C16:1, C18:2)” value [3] of the same compound?
Its value is 1.41 and 1.30.

And the “Phosphatidylcholine (C18:2, C20:4)” value [3]?
The value was 1.06 and 1.04.

What about the Pyruvate [3] of the same compound?
The Pyruvate was 0.69 and 1.04.

And the “Tricosanoic acid (C23:0)” value [3]?
The value was 1.42 and 1.05.

What about the erythro-Sphingosine [3] of the same compound?
Its erythro-Sphingosine is 1.51 and 1.35.

And the threo-Sphingosine [3]?
Its threo-Sphingosine is 1.51 and 1.26.

What about the “Sphingomyelin (d18:1, C16:0)” value (female rats, fh28 (study day 28), Table 1, first listing) of the same compound?
The value was 1.70 and 1.38.

And the “Sphingomyelin (d18:1, C16:0)” value (female rats, fh28 (study day 28), Table 1, second listing)?
Its value is 1.16 and 1.07.

And the 3-O-Methylsphingosine [4]?
The 3-O-Methylsphingosine was 2.26.

What about the 5-O-Methylsphingosine [4] of the same compound?
The 5-O-Methylsphingosine was 2.36.

And the 14-Methyl-Pentadecanoic acid [4]?
The 14-Methyl-Pentadecanoic acid was 0.98.

And the 17-Methyloctadecanoic acid [4]?
The 17-Methyloctadecanoic acid was 0.97.

And the Arginine [4]?
The Arginine was 1.24.

What about the Cholesterol [4] of the same compound?
The Cholesterol was 1.74.

And the Citrate [4]?
Its Citrate is 0.86.

What about the “Dihom-gamma-Linolenic acid (C20:cis[8,11,14]3)” value (shortened to “Dihom-gamma-Linolenic acid”) [4] of the same compound?
Its value is 2.34.

What about the “Lignoceric acid (C24:0)” value [4] of the same compound?
The value was 1.94.

What about the Phytosphingosine [4] of the same compound?
The Phytosphingosine was 1.53.

And the “Sphingomyelin (d18:1, C16:0)” value [4]?
The value was 1.65.

What about the “Tricosanoic acid (C23:0)” value [4] of the same compound?
The value was 1.67.

And the alpha-Tocopherol [4]?
Its alpha-Tocopherol is 2.58.

And the erythro-Sphingosine [4]?
Its erythro-Sphingosine is 2.06.

And the threo-Sphingosine [4]?
The threo-Sphingosine was 2.05.

And the Glutamate (male rats, mh7 (study day 7), Table 2, first listing)?
The Glutamate was 1.07.

And the Glutamate (male rats, mh7 (study day 7), Table 2, second listing)?
The Glutamate was 1.15.

And the 3-O-Methylsphingosine [5]?
Its 3-O-Methylsphingosine is 2.34.

What about the 5-O-Methylsphingosine [5] of the same compound?
Its 5-O-Methylsphingosine is 2.37.

And the 14-Methyl-Pentadecanoic acid [5]?
The 14-Methyl-Pentadecanoic acid was 0.96.

What about the 17-Methyloctadecanoic acid [5] of the same compound?
Its 17-Methyloctadecanoic acid is 0.83.

What about the Arginine [5] of the same compound?
The Arginine was 1.30.

What about the Cholesterol [5] of the same compound?
Its Cholesterol is 2.25.

What about the Citrate [5] of the same compound?
The Citrate was 0.81.

What about the “Dihom-gamma-Linolenic acid” value [5] of the same compound?
Its value is 1.84.

And the “Lignoceric acid (C24:0)” value [5]?
The value was 1.66.

And the Phytosphingosine [5]?
Its Phytosphingosine is 1.67.

What about the “Sphingomyelin (d18:1, C16:0)” value [5] of the same compound?
Its value is 1.69.

What about the “Tricosanoic acid (C23:0)” value [5] of the same compound?
The value was 2.01.

And the alpha-Tocopherol [5]?
Its alpha-Tocopherol is 2.99.

What about the erythro-Sphingosine [5] of the same compound?
The erythro-Sphingosine was 2.06.

What about the threo-Sphingosine [5] of the same compound?
The threo-Sphingosine was 2.03.

And the Glutamate (male rats, mh14 (study day 14), Table 2, first listing)?
The Glutamate was 0.73.

What about the Glutamate (male rats, mh14 (study day 14), Table 2, second listing) of the same compound?
The Glutamate was 0.82.

And the 3-O-Methylsphingosine [6]?
Its 3-O-Methylsphingosine is 2.91.

What about the 5-O-Methylsphingosine [6] of the same compound?
The 5-O-Methylsphingosine was 2.78.

What about the 14-Methyl-Pentadecanoic acid [6] of the same compound?
The 14-Methyl-Pentadecanoic acid was 0.77.

And the 17-Methyloctadecanoic acid [6]?
Its 17-Methyloctadecanoic acid is 0.89.

What about the Arginine [6] of the same compound?
The Arginine was 1.20.

What about the Cholesterol [6] of the same compound?
The Cholesterol was 1.98.

What about the Citrate [6] of the same compound?
The Citrate was 0.64.

And the “Dihom-gamma-Linolenic acid” value [6]?
The value was 2.68.

What about the “Lignoceric acid (C24:0)” value [6] of the same compound?
The value was 2.07.

And the Phytosphingosine [6]?
Its Phytosphingosine is 2.17.

What about the “Sphingomyelin (d18:1, C16:0)” value [6] of the same compound?
The value was 1.79.

And the “Tricosanoic acid (C23:0)” value [6]?
The value was 2.39.

And the alpha-Tocopherol [6]?
Its alpha-Tocopherol is 3.13.

And the erythro-Sphingosine [6]?
Its erythro-Sphingosine is 2.29.

What about the threo-Sphingosine [6] of the same compound?
The threo-Sphingosine was 2.05.

And the Glutamate (male rats, mh28 (study day 28), Table 2, first listing)?
The Glutamate was 0.70.

And the Glutamate (male rats, mh28 (study day 28), Table 2, second listing)?
The Glutamate was 0.77.
